Columns and labels:
Escherichia coli [1] = test: Antibacterial activity against Escherichia coli BW25113 after 16 to 18 hrs by micro-dilution method; assay type: functional
Escherichia coli [2] = test: Antibacterial activity against tolC-deficient Escherichia coli BW25113 after 16 to 18 hrs by micro-dilution method; assay type: functional
Bacillus subtilis = test: Antibacterial activity against Bacillus subtilis 168 after 16 to 18 hrs by micro-dilution method; assay type: functional; settings: subsp. subtilis str. 168
Pseudomonas aeruginosa = test: Antibacterial activity against Pseudomonas aeruginosa after 16 to 18 hrs by micro-dilution method; assay type: functional
Salmonella typhimurium = test: Antibacterial activity against Salmonella typhimurium after 16 to 18 hrs by micro-dilution method; assay type: functional, Salmonella enterica subsp. enterica serovar Typhimurium; settings: Salmonella enterica
Vibrio cholerae = test: Antibacterial activity against Vibrio cholerae after 16 to 18 hrs by micro-dilution method; assay type: functional
Shigella boydii = test: Antibacterial activity against Shigella boydii after 16 to 18 hrs by micro-dilution method; assay type: functional
Klebsiella pneumoniae = test: Antibacterial activity against Klebsiella pneumoniae after 16 to 18 hrs by micro-dilution method; assay type: functional
Klebsiella aerogenes = test: Antibacterial activity against Enterobacter aerogenes after 16 to 18 hrs by micro-dilution method; assay type: functional
Acinetobacter baumannii = test: Antibacterial activity against Acinetobacter baumannii after 16 to 18 hrs by micro-dilution method; assay type: functional
Edwardsiella tarda = test: Antibacterial activity against Edwardsiella tarda after 16 to 18 hrs by micro-dilution method; assay type: functional
Morganella morganii = test: Antibacterial activity against Morganella morganii after 16 to 18 hrs by micro-dilution method; assay type: functional
Staphylococcus aureus = test: Antibacterial activity against Staphylococcus aureus after 16 to 18 hrs by micro-dilution method; assay type: functional

CCCCCCCCCOc1ccc2[nH]cc(CC[N+](C)(C)C)c2c1
MIC (Escherichia coli [1]): 52 µg/mL | MIC (Escherichia coli [2]): 6.5 µg/mL | MIC (Bacillus subtilis): 52 µg/mL | MIC (Pseudomonas aeruginosa): 52 µg/mL | MIC (Salmonella typhimurium): 26 µg/mL | MIC (Vibrio cholerae): > 104 µg/mL | MIC (Shigella boydii): 26 µg/mL | MIC (Klebsiella pneumoniae): 26 µg/mL | MIC (Klebsiella aerogenes): 52 µg/mL | MIC (Acinetobacter baumannii): 52 µg/mL | MIC (Edwardsiella tarda): 26 µg/mL | MIC (Morganella morganii): > 104 µg/mL | MIC (Staphylococcus aureus): 6.5 µg/mL

CC(C)CCCC(C)CCOc1ccc2[nH]cc(CCN)c2c1.Cl (centres undefined)
MIC (Escherichia coli [1]): 13 µg/mL | MIC (Escherichia coli [2]): 3.2 µg/mL | MIC (Bacillus subtilis): 1.6 µg/mL | MIC (Pseudomonas aeruginosa): 25 µg/mL | MIC (Salmonella typhimurium): 6.3 µg/mL | MIC (Vibrio cholerae): 6.3 µg/mL | MIC (Shigella boydii): 6.3 µg/mL | MIC (Klebsiella pneumoniae): 13 µg/mL | MIC (Klebsiella aerogenes): 13 µg/mL | MIC (Acinetobacter baumannii): 13 µg/mL | MIC (Edwardsiella tarda): 25 µg/mL | MIC (Morganella morganii): > 101 µg/mL | MIC (Staphylococcus aureus): 6.3 µg/mL

NCCc1c[nH]c2ccccc12 [TRYPTAMINE]
MIC (Escherichia coli [1]): > 51 µg/mL | MIC (Escherichia coli [2]): > 51 µg/mL | MIC (Bacillus subtilis): > 51 µg/mL | MIC (Acinetobacter baumannii): > 51 µg/mL | MIC (Staphylococcus aureus): > 51 µg/mL

Cl.NCCc1c[nH]c2ccc(OCCCCCCCc3ccccc3)cc12
MIC (Escherichia coli [1]): 14 µg/mL | MIC (Escherichia coli [2]): 1.8 µg/mL | MIC (Bacillus subtilis): 1.8 µg/mL | MIC (Pseudomonas aeruginosa): 56 µg/mL | MIC (Salmonella typhimurium): 7 µg/mL | MIC (Vibrio cholerae): 7 µg/mL | MIC (Shigella boydii): 7 µg/mL | MIC (Klebsiella pneumoniae): 7 µg/mL | MIC (Klebsiella aerogenes): 14 µg/mL | MIC (Acinetobacter baumannii): 7 µg/mL | MIC (Edwardsiella tarda): 28 µg/mL | MIC (Morganella morganii): > 112 µg/mL | MIC (Staphylococcus aureus): 3.5 µg/mL

Source: ChEMBL document CHEMBL3864146, “5-Alkyloxytryptamines are membrane-targeting, broad-spectrum antibiotics” (Bioorg Med Chem Lett, 2016)
